Results reported in patent US20170232013A1, “COMPOSITIONS AND METHODS FOR THE TREATMENT OF MUSCULOSKELETAL RELATED DISEASES AND DISORDERS USING METAL ION-CITRATE ANALOG COMPLEXES” (The Charlotte-Mecklenburg Hospital Authority d/b/a …, priority 2011, published 2017).

How the values were obtained:
[1] = system: Hartley guinea pigs; experiment: Subchondral bone mineral density by X-ray densitometry; format: in vivo
Method: The bone mineral density of subchondral bone of these same Hartley guinea pigs was evaluated using a X-ray densitometry.

[2] = system: meniscus derived from osteoarthritis patients; experiment: Microarray gene expression in cultured minced meniscus; format: cell-based, human; settings: 7 day treatment, Skeletal Development gene
Description: In this example, meniscus derived from osteoarthritis patients were minced into small pieces and cultured in the absence or presence of magnesium phosphcitrate (MgPC). After 7 day treatment, RNA was extracted and gene expression was investigated using microarray.

[3] = system: Hartley guinea pigs; experiment: High definition X-ray of front limbs of Hartley guinea pigs after eight months of CaPC; format: in vivo; settings: 30 mg/kg intraperitoneal twice per week
Method: In this example, three month old Hartley guinea pigs were administered 30 mg/kg calcium phosphorcitrate (CaPC) or saline via intraperitoneal injection twice per week. Eight months later, the guinea pigs were sacrificed and examined with high definition X-ray. […] The bone mineral content of the front limb of a CaPC-treated Hartley guinea pig (left photo, the green arrow) was higher than the bone mineral content of a front limb of an untreated Hartley guinea pig (left photo, the green arrow). […] The diameter of the front limb was lager and the bone mineral content was higher in CaPC-treated Hartley guinea pigs that that in untreated Hartley guinea pigs.

[4] = system: Hartley guinea pigs; experiment: Skyscan Micro-CT of distal femurs of Hartley guinea pigs; format: in vivo
Method: The distal femurs of the Hartley guinea pigs were also analyzed with Skyscan Micro-CT. The femur of untreated Hartley guinea pigs had less bone volume and larger marrow space than the femur of CaPC-treated Hartley guinea pigs. Micro-CT scan of the femur of Hartley guinea pigs. […] The area showing less trabecular bone and larger marrow space is indicated by a red arrow. In the right image of FIG. 3, the femur of a CaPC-treated Hartley guinea pig is shown.
Femurs, previously stored in 70% ethanol, were cut close to the distal femur condyle. The specimens were left to dry 48-hr before being scanned using Skyscan Micro-CT. A 3-D model was built in the ANT model building program and bisected with a plane down the lateral/midline. Using the model building program, a separate dataset was built forming 30 cross sections on either side of the plane. With this dataset, measurements were taken with the 3D-Calc program. A rectangular region of interest was applied to all 60 sections. The region of interest was placed approximately 0.5 cm down from the growth plate in the central part of the trabeculae and extended downward.

Substance | Subchondral bone mineral density ([1]; Pair one, untreated 0.143) [g/cm^2] | Subchondral bone mineral density ([1]; Pair three, untreated 0.150) [g/cm^2] | Subchondral bone mineral density ([1]; Pair two, untreated 0.146) [g/cm^2] | Differential Expression ACAN [2] | Differential Expression COL2A1 [2] | Differential Expression COL11A1 [2] | formation of bone ([3]; vs saline) | bone mineral content of the front limb ([3]; vs untreated) | diameter of the front limb ([3]; vs untreated) | trabecular bone and marrow space of femur (Micro-CT image) ([4]; 30 mg/kg intraperitoneal twice per week, eight months, vs untreated) | Bone Volume ([4]; distal femur, region of interest over 60 sections, untreated 0.19 + 0.04) | Trabecular Number ([4]; distal femur, region of interest over 60 sections, untreated 0.43 + 0.08) | Tissue Volume ([4]; distal femur, region of interest over 60 sections, untreated 10.76 + 1.9) | Trabecular Thickness ([4]; distal femur, region of interest over 60 sections, untreated 32.90 + 3.6)
calcium phosphorcitrate [CaPC] | 0.157 | 0.181 | 0.161 | significantly induced | significantly induced | significantly induced | promoted the formation of bone | higher | larger | more trabecular bone and less marrow space | 0.49 + 0.09 | 1.07 + 0.15 | 10.76 + 1.9 | 42.00 + 4.9
magnesium phosphcitrate [MgPC] | – | – | – | 2.0 | 2.0 | 2.7 | – | – | – | – | – | – | – | –
